Test results taken from ChEMBL document CHEMBL2413025, “Synthesis, biological activity and molecular modeling studies on 1H-benzimidazole derivatives as acetylcholinesterase inhibitors” (Bioorg Med Chem, 2013).

How the values were obtained:
[1] = biological target: Cholinesterase (Equus caballus, UniProt P81908)
Description: Inhibition of horse serum BChE using acetylthiocholine iodide as substrate preincubated for 5 mins before substrate addition by Ellman's method

[2] = biological target: Acetylcholinesterase (Electrophorus electricus, UniProt O42275)
Description: Inhibition of electric eel AChE using acetylthiocholine iodide as substrate preincubated for 5 mins before substrate addition by Ellman's method

[3] = Selectivity ratio of IC50 for horse serum BChE to IC50 for electric eel AChE
[4] = biological target: Acetylcholinesterase (Homo sapiens, UniProt P22303); test: Inhibition of recombinant human AChE using acetylthiocholine iodide as substrate preincubated for 5 mins before substrate addition by Ellman's method
Chain of Acetylcholinesterase (Homo sapiens, UniProt P22303) (P22303 whole entry): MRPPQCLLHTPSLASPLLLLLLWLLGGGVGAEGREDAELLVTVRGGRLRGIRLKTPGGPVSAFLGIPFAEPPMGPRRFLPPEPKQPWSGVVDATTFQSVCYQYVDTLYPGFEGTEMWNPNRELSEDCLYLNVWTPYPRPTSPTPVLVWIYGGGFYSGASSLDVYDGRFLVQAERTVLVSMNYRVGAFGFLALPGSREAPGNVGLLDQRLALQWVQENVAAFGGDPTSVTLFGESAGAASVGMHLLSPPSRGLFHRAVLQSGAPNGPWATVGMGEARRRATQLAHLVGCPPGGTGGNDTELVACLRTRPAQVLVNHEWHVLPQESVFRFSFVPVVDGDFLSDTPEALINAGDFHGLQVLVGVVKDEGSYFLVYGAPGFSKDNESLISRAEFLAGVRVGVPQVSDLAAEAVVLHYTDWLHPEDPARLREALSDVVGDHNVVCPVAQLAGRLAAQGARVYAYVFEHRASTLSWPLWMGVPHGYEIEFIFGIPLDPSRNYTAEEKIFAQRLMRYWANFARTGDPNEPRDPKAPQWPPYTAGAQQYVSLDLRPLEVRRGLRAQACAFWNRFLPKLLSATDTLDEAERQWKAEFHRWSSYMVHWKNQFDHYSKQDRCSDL

Chain of Acetylcholinesterase (Electrophorus electricus, UniProt O42275) (O42275 whole entry): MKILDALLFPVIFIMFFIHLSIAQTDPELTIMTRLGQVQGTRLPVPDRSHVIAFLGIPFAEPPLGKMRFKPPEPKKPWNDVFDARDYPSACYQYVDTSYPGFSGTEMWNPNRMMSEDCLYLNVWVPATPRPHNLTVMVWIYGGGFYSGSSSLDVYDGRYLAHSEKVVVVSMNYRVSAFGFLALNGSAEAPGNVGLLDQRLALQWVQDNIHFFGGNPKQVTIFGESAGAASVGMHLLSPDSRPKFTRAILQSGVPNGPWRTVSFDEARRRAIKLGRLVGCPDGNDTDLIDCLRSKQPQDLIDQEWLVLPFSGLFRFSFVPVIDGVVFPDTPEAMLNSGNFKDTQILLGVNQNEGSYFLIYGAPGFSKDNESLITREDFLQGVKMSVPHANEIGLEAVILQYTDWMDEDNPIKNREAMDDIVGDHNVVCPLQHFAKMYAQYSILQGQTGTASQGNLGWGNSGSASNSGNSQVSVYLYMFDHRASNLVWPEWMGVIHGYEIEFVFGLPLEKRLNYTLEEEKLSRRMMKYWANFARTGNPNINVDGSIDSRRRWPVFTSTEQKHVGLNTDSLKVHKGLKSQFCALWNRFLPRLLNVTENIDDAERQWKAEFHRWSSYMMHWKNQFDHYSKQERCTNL
Chain of Cholinesterase (P81908 whole entry): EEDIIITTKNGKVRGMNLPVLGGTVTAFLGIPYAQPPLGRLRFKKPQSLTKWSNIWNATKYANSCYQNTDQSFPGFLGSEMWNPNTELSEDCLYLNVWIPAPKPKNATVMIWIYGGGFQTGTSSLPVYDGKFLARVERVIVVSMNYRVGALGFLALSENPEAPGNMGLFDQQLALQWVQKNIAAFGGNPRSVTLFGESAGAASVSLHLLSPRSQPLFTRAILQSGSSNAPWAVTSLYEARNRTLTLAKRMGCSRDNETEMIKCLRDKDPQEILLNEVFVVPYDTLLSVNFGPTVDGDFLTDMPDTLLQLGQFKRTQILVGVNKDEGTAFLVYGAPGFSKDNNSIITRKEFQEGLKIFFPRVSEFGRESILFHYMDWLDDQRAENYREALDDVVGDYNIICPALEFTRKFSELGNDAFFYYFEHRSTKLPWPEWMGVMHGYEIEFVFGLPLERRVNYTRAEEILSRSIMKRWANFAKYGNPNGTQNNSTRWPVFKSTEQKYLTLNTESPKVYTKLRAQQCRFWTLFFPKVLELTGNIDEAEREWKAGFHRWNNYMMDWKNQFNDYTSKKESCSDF

Structure (SMILES)	IC50 [1] [µM]	IC50 [2] [µM]	Ratio IC50 [3]	IC50 [4] [µM]
Cc1ccc2[nH]c(-c3ccc(OCCN4CCCCC4)cc3)nc2c1	1.37	0.84	1.6	0.39
CC(C)N(CCOc1ccc(-c2nc3cc(Cl)ccc3[nH]2)cc1)C(C)C	–	–	12.8	–
CC(C)N(CCOc1ccc(-c2nc3ccccc3[nH]2)cc1)C(C)C	4.11	1.19	3.5	23.4
Cc1ccc2[nH]c(-c3ccc(OCCN4CCCC4)cc3)nc2c1	3.24	1.34	2.4	0.4
CCN(CC)CCOc1ccc(-c2nc3cc(C)ccc3[nH]2)cc1	–	–	2.8	–
Clc1ccc2[nH]c(-c3ccc(OCCN4CCOCC4)cc3)nc2c1	> 100	11.1	–	9.73
Cc1ccc2[nH]c(-c3ccc(OCCN4CCOCC4)cc3)nc2c1	> 100	> 100	–	12.9
Cc1ccc2[nH]c(-c3ccc(O)cc3)nc2c1	4.67	15.9	0.3	> 100
Clc1ccc2nc(-c3ccc(OCCN4CCCCC4)cc3)[nH]c2c1	> 100	0.61	–	0.13
Cc1ccc2[nH]c(-c3ccc(OCCN(C)C)cc3)nc2c1	> 100	5.06	–	12.3
CN(C)CCOc1ccc(-c2nc3ccccc3[nH]2)cc1	5.87	13.1	0.4	10.7
CC(C)N(CCOc1ccc(-c2nc3ccc(Cl)cc3[nH]2)cc1)C(C)C	7.44	0.58	–	3.68
CCN(CC)CCOc1ccc(-c2nc3ccccc3[nH]2)cc1	5.06	15.6	0.3	> 100
c1ccc2[nH]c(-c3ccc(OCCN4CCOCC4)cc3)nc2c1	> 100	18.8	–	> 100
Oc1ccc(-c2nc3ccccc3[nH]2)cc1	4.59	17.3	0.3	> 100
Clc1ccc2[nH]c(-c3ccc(OCCN4CCCC4)cc3)nc2c1	3.42	3.24	1.1	1.4
Oc1ccc(-c2nc3cc(Cl)ccc3[nH]2)cc1	8.52	14.6	0.6	> 100
c1ccc2[nH]c(-c3ccc(OCCN4CCCCC4)cc3)nc2c1	2.45	1.08	2.3	1.03
CN(C)CCOc1ccc(-c2nc3ccc(Cl)cc3[nH]2)cc1	> 100	2.68	–	8.02
c1ccc2[nH]c(-c3ccc(OCCN4CCCC4)cc3)nc2c1	23	3.05	7.6	2.13
CCN(CC)CCOc1ccc(-c2nc3cc(Cl)ccc3[nH]2)cc1	> 100	3.5	–	8.75
CCN(CC)CCOc1ccc(-c2nc3ccc(C)cc3[nH]2)cc1	6.48	2.34	–	51
